From ChEMBL document CHEMBL2176967, “Radiofluorinated derivatives of 2-(phosphonomethyl)pentanedioic acid as inhibitors of prostate specific membrane antigen (PSMA) for the imaging of prostate cancer” (J Med Chem, 2012)

How the values were obtained:
[1] = target: T1, Glutamate carboxypeptidase 2 (Homo sapiens, UniProt Q04609); assay: biochemical
Description: Inhibition of NAALADase activity in human LNCaP cell membranes assessed as inhibition of [3H]NAG conversion to [3H]glutamate after 30 mins by liquid scintillation counting

[2] = target: T1, Glutamate carboxypeptidase 2; assay: Binding affinity to NAALADase
Liver = assay: Drug level in human LNCaP cells xenografted Balb/c mouse liver at 10 MBq, iv measured after 45 to 130 mins by PET/CT scanning; format: ADME, organism-based; conditions: in vivo
Kidney [3] = assay: Drug level in human LNCaP cells xenografted Balb/c mouse kidney at 10 MBq, iv measured after 45 to 130 mins by PET/CT scanning in presence of unlabelled compound; format: ADME, organism-based; conditions: in vivo
[4] = Drug level in human LNCaP cells xenografted Balb/c mouse tumor at 10 MBq, iv measured after 45 to 130 mins by PET/CT scanning in presence of unlabelled compound; format: ADME, organism-based, Neoplasm; conditions: in vivo
Bone = assay: Drug level in human LNCaP cells xenografted Balb/c mouse bone at 10 MBq, iv measured after 45 to 130 mins by PET/CT scanning; format: ADME, organism-based, Bone element; conditions: in vivo
[5] = Drug level in human LNCaP cells xenografted Balb/c mouse gut at 10 MBq, iv measured after 45 to 130 mins by PET/CT scanning; format: ADME, organism-based; conditions: in vivo
Urinary bladder = assay: Drug level in human LNCaP cells xenografted Balb/c mouse bladder at 10 MBq, iv measured after 45 to 130 mins by PET/CT scanning; format: ADME, organism-based; conditions: in vivo
[6] = Drug level in human LNCaP cells xenografted Balb/c mouse tumor at 10 MBq, iv measured after 45 to 130 mins by PET/CT scanning; format: ADME, organism-based, Neoplasm; conditions: in vivo
Kidney [7] = assay: Drug level in human LNCaP cells xenografted Balb/c mouse kidney at 10 MBq, iv measured after 45 to 130 mins by PET/CT scanning; format: ADME, organism-based; conditions: in vivo

T1 sequence (Q04609 whole entry): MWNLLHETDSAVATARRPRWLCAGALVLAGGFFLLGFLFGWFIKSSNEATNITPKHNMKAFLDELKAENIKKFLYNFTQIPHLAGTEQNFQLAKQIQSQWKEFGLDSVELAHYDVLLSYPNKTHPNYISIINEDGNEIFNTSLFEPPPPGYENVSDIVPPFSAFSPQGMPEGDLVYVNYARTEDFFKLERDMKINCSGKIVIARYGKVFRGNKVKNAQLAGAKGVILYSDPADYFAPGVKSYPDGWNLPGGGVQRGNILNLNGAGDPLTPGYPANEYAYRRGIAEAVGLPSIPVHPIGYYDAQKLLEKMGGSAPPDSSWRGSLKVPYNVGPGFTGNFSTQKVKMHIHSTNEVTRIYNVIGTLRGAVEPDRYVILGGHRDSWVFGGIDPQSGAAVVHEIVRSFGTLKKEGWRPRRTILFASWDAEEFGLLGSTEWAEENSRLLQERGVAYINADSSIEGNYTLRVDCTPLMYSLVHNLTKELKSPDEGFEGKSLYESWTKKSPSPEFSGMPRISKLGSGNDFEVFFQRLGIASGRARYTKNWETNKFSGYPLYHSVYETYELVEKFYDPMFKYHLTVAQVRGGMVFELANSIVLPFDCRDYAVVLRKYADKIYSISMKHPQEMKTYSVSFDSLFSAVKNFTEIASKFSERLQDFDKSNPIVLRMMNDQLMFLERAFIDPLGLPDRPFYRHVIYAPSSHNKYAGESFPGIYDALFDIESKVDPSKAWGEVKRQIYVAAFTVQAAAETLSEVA

| Structure (SMILES) | IC50 [1] [nM] | Ki [1] [nM] | Ki [2] [nM] | also measured |
| --- | --- | --- | --- | --- |
| O=C(O)C(F)CC(CP(=O)(O)O)C(=O)O (racemic) | 6.8 | 2.6 |  |  |
| O=C(O)CC[C@H](NC(=O)N[C@@H](CCC(=O)O)C(=O)O)C(=O)O |  |  | 8 |  |
| O=C(N[C@@H](C[C@@H](Cc1ccccc1)C(=O)O)C(=O)O)N[C@@H](C[C@@H](Cc1ccccc1)C(=O)O)C(=O)O |  |  | 392 |  |
| O=C(O)CCCC(CP(=O)(O)O)C(=O)O (stereo not drawn) |  |  |  | IC50 [2]: 185 nM |
| O=C(O)C([18F])CC(CP(=O)(O)O)C(=O)O (racemic) |  |  |  | Drug uptake (Liver): Not Active; Drug uptake (Kidney [3]): Not Active; Drug uptake [4]: Not Active; Drug uptake (Bone): Active; Drug uptake [5]: Not Active; Drug uptake (Urinary bladder): Active; Drug uptake [6]: Active; Drug uptake (Kidney [7]): Active |

More lines, main results first:

| IC50 [1] [nM] | Ki [1] [nM] | Ki [2] [nM] | Structure (SMILES) | also measured |
| --- | --- | --- | --- | --- |
| 55.9 | 22 |  | O=C(O)[C@@H](C[C@H](F)C(=O)O)CP(=O)(O)O |  |
|  |  | 1280 | C[C@H](C[C@H](NC(=O)N[C@@H](C[C@@H](C)C(=O)O)C(=O)O)C(=O)O)C(=O)O |  |
| 89.4 | 36.4 |  | O=C(O)[C@@H](C[C@@H](F)C(=O)O)CP(=O)(O)O |  |
|  |  | 1110 | C[C@@H](C[C@H](NC(=O)N[C@@H](C[C@H](C)C(=O)O)C(=O)O)C(=O)O)C(=O)O |  |
| 8.1 | 3.1 |  | O=C(O)[C@H](C[C@@H](F)C(=O)O)CP(=O)(O)O |  |
| 3.1 | 1.4 |  | O=C(O)[C@H](C[C@H](F)C(=O)O)CP(=O)(O)O |  |
